Reference: ChEMBL document CHEMBL1201862, “PubChem BioAssay data set” (2004)
The source made the active and inactive calls. Cut-off read from the data, not from the text of the source, for most assays here: actives have a measured IC50 and inactives only a lower limit.

Assays:
[1] = target: T1, Dual specificity protein phosphatase 3 (Homo sapiens, UniProt P51452); assay: inhibition constants for human DUSP3 – biochemical, colorimetric, SAR follow-up (AID 2004)
Bcl-2-related protein A1 = target: T2, Bcl-2-related protein A1 (Mus musculus, UniProt Q07440); format: functional;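 note: confirmatory dose–response counterscreen on Bfl-1, used to check hits from a UBC13 polyubiquitin inhibitor campaign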
T2 sequence (Q07440 whole entry): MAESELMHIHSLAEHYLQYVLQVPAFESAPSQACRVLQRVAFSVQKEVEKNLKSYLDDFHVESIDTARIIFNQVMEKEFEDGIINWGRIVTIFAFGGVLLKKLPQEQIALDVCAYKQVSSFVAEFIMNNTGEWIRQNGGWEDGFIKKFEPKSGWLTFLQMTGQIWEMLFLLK

[2] = target: T3, Ubiquitin-conjugating enzyme E2 N (Homo sapiens, UniProt P61088); format: functional
T3 sequence (P61088 whole entry): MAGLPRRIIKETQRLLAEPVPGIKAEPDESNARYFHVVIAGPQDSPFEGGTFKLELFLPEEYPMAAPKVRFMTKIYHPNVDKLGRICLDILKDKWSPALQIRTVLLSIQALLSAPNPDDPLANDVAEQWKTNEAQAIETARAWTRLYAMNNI

[3] = target: T3, Ubiquitin-conjugating enzyme E2 N; format: functional; remark: listed apart in the source
Beta-galactosidase = Beta-galactosidase (Escherichia coli, UniProt Q8VNN2); assay: detection-enzyme interference by beta-gal modulators – biochemical, E. coli enzyme, set 3, artefact control for CCR6 antagonist project, dose response (AID 504712); format: functional
[4] = target: T4, DNA dC->dU-editing enzyme APOBEC-3G (Homo sapiens, UniProt Q9HC16); assay: inhibition of APOBEC3G ssDNA deamination – biochemical, fluorescence, single-stranded DNA substrate, SAR follow-up (AID 602136); format: functional; conditions: read-out: IC50_Mean
T4 sequence (Q9HC16 whole entry): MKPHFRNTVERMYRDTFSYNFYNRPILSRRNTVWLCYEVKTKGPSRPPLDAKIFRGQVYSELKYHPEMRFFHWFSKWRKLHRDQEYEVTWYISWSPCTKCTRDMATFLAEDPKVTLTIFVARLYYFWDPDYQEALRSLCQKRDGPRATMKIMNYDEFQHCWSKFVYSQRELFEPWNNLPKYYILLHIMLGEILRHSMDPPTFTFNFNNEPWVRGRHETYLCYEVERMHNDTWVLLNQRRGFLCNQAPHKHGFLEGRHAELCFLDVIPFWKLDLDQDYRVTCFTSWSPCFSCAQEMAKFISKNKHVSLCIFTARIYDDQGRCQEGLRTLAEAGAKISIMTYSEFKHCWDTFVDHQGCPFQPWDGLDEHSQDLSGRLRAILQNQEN

[5] = target: T5, DNA dC->dU-editing enzyme APOBEC-3A (Homo sapiens, UniProt P31941); assay: SAR analysis of small molecule inhibitors of APOBEC3A DNA Deaminase via a fluorescence-based single-stranded DNA deaminase assay.; format: functional; conditions: read-out: IC50_Mean
T5 sequence (P31941 whole entry): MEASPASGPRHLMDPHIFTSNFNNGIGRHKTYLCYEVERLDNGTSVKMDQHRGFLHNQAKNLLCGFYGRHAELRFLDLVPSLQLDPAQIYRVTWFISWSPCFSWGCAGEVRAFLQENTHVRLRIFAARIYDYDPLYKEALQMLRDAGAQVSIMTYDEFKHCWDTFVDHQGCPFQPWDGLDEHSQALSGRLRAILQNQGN

[6] = target: T5, DNA dC->dU-editing enzyme APOBEC-3A; assay: Dose Response confirmation of small molecule APOBEC3A DNA Deaminase Inhibitors via a fluorescence-based single-stranded DNA deaminase assay. [Related pubchem assays (depositor defined):AID493011, AID493024]; format: functional
[7] = target: T6, Polyadenylate-binding protein 1 (Homo sapiens, UniProt P11940); assay: PABP inhibition in translation initiation, SAR follow-up (AID 435018); format: functional
T6 sequence (P11940 whole entry): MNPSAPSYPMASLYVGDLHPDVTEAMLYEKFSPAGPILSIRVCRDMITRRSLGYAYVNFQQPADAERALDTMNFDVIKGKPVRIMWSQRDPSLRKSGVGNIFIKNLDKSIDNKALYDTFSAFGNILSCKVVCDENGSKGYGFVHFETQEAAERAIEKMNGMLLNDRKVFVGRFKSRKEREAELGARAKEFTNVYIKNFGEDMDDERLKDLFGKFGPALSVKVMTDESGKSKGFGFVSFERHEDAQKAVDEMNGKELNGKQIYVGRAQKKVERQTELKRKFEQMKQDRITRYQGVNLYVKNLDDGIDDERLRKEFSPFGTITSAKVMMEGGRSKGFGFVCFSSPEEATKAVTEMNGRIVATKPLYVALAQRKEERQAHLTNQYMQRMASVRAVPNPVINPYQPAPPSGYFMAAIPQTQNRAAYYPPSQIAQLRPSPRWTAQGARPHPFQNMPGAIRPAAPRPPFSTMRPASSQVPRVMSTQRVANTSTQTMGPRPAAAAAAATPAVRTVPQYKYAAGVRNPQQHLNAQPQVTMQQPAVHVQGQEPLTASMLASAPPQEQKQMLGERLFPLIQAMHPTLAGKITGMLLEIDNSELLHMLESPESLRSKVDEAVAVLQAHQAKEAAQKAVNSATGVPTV

[8] = target: T5, DNA dC->dU-editing enzyme APOBEC-3A; assay: SAR analysis of small molecule inhibitors of APOBEC3A DNA Deaminase via a fluorescence-based single-stranded DNA deaminase assay - Set 2.; format: functional; conditions: read-out: IC50_Mean
[9] = target: T7, Eukaryotic translation initiation factor 4H (Homo sapiens, UniProt Q15056); assay: inhibitors of translation initiation factor eIF4H – SAR follow-up (AID 435011); format: functional
[10] = target: T6, Polyadenylate-binding protein 1; assay: blockers of PABP interaction with poly(A) – biochemical, fluorescence polarization, […] (AID 2014)
[11] = target: T4, DNA dC->dU-editing enzyme APOBEC-3G; format: functional
[12] = target: T7, Eukaryotic translation initiation factor 4H; assay: eIF4H binding inhibition – biochemical, uHTS, fluorescence polarization, translation initiation inhibitor project, primary screen (AID 2012)
[13] = target: T4, DNA dC->dU-editing enzyme APOBEC-3G; assay: SAR analysis of small molecule inhibitors of APOBEC3G DNA Deaminase via a fluorescence-based single-stranded DNA deaminase assay - Set 2.; format: functional; conditions: read-out: IC50_Mean
[14] = target: G-protein coupled receptor 55 (Homo sapiens, UniProt Q9Y2T6); assay: selective activators of receptor GPR55 – imaging, U2OS cells, beta-arrestin-GFP redistribution, primary screen (AID 1961); format: functional
G-protein coupled receptor 55, sequence (Q9Y2T6 whole entry): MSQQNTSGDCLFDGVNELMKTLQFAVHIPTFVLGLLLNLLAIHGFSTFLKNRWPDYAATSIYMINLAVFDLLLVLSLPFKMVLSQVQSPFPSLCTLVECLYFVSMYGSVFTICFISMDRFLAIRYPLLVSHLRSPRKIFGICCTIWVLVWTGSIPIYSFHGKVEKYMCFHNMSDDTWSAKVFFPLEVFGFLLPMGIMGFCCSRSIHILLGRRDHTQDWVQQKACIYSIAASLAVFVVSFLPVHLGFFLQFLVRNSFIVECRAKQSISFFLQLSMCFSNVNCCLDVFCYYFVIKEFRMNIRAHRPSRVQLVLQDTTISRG

[15] = target: Voltage-dependent T-type calcium channel subunit alpha-1H (Homo sapiens, UniProt O95180); assay: human CACNA1H calcium influx blockade – cell-based, synthetic library set 2, HEK293 HH8, Fluo-4, SAR follow-up (AID 493023); format: functional
Mu-type opioid receptor = Mu-type opioid receptor (Homo sapiens, UniProt P35372); assay: SAR Analysis of Antagonists of the MOR Receptor using an Image-Based Assay - Set 3. [Related pubchem assays (depositor defined):AID1777, AID1785, AID1786, AID1966, AID2133, AID2136, AID2284, AID2285, AID2420]; format: functional
Mu-type opioid receptor, sequence (P35372 whole entry): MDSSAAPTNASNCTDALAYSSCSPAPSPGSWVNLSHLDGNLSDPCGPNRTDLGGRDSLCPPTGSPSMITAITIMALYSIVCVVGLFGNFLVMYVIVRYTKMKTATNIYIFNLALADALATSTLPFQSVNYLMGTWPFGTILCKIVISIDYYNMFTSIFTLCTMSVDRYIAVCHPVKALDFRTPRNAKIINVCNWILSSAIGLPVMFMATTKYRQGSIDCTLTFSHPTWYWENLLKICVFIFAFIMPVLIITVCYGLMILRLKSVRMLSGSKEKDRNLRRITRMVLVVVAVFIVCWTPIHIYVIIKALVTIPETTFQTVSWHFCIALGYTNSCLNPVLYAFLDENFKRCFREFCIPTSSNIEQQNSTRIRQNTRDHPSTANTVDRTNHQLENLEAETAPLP

[16] = target: T8, Kappa-type opioid receptor (Homo sapiens, UniProt P41145); assay: SAR analysis of Antagonists of the Kappa Opioid Receptor (KOR) using an Image-Based Assay - Set 4. [Related pubchem assays (depositor defined):AID1777, AID1785]; format: functional
T8 sequence (P41145 whole entry): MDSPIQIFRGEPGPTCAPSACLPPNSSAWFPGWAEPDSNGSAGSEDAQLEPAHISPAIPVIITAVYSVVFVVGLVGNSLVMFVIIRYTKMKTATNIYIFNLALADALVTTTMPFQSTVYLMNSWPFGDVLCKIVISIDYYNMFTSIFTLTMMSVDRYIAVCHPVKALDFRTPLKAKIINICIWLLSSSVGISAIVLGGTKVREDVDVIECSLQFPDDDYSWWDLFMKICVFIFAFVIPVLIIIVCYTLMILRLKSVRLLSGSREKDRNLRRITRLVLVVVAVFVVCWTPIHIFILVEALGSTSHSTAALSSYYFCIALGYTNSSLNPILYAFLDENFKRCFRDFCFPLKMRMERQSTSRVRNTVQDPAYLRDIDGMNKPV

[17] = target: Delta-type opioid receptor (Homo sapiens, UniProt P41143); assay: SAR Analysis of Antagonists of the DOR Receptor using an Image-Based Assay - Set 3. [Related pubchem assays (depositor defined):AID1777, AID1785]; format: functional;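 note: U2OS cells expressing DOR1 and beta-arrestin GFP stimulated with 100 nM SNC80; imaging of GFP-tagged beta-arrestin moving into spots after receptor activation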
Delta-type opioid receptor, sequence (P41143 whole entry): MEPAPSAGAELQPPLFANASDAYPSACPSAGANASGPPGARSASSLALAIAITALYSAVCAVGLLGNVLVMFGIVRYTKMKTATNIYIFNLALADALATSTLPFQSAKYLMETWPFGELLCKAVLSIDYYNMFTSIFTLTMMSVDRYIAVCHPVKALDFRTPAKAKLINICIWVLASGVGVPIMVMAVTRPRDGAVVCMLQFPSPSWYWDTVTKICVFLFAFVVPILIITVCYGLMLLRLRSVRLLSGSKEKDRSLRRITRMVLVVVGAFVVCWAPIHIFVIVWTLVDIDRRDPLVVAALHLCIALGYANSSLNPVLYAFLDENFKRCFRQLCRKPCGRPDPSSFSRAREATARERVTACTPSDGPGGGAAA

[18] = target: T8, Kappa-type opioid receptor; assay: SAR analysis of small molecule antagonists of the kappa opioid receptor via a luminescent beta-arrestin assay - Set 4. [Related pubchem assays (depositor defined):AID1777, AID1778, AID1785, AID1786, AID1966, AID2133, AID2136, AID2285]; format: functional
[19] = target: T1, Dual specificity protein phosphatase 3; assay: SAR VHR1 Fluorescent Assay for In Vitro dose response studies. [Related pubchem assays (depositor defined):AID1654, AID1661, AID1878, AID1992, AID2004, AID2070, AID2085]; format: functional
[20] = target: T9, Tyrosine-protein phosphatase non-receptor type 7 (Homo sapiens, UniProt P35236); assay: inhibition of hematopoietic tyrosine phosphatase HePTP – biochemical, set 2, SAR follow-up (AID 449736); format: functional
T9 sequence (P35236 whole entry): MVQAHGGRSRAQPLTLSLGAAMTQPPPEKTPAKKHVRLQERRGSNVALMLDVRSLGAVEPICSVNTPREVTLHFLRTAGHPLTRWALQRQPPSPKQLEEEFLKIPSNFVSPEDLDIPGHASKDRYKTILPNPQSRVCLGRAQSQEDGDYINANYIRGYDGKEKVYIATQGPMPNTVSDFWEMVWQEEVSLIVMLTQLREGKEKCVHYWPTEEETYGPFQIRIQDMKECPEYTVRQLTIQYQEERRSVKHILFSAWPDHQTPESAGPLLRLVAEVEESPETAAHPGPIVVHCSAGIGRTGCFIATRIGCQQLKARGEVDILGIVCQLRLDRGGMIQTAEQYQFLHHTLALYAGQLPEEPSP

[21] = target: T1, Dual specificity protein phosphatase 3; assay: SAR VHR1 absorbance Assay for In Vitro dose response studies. [Related pubchem assays (depositor defined):AID1654, AID1661, AID1878, AID1992, AID2004]
[22] = target: Tyrosine-protein phosphatase non-receptor type 12 (Homo sapiens, UniProt Q05209); assay: SAR Selectivity Analysis of small molecule inhibitors of PEST using pCAP in a fluorescence assay. [Related pubchem assays (depositor defined):AID1779, AID1784, AID2135]; format: functional
[23] = target: T10, Tyrosine-protein phosphatase non-receptor type 22 (Homo sapiens, UniProt Q9Y2R2); assay: inhibition of lymphoid tyrosine phosphatase LYP – biochemical, pCAP fluorogenic substrate, fluorescence, set 3, SAR follow-up (AID 449727); format: functional
T10 sequence (Q9Y2R2 whole entry): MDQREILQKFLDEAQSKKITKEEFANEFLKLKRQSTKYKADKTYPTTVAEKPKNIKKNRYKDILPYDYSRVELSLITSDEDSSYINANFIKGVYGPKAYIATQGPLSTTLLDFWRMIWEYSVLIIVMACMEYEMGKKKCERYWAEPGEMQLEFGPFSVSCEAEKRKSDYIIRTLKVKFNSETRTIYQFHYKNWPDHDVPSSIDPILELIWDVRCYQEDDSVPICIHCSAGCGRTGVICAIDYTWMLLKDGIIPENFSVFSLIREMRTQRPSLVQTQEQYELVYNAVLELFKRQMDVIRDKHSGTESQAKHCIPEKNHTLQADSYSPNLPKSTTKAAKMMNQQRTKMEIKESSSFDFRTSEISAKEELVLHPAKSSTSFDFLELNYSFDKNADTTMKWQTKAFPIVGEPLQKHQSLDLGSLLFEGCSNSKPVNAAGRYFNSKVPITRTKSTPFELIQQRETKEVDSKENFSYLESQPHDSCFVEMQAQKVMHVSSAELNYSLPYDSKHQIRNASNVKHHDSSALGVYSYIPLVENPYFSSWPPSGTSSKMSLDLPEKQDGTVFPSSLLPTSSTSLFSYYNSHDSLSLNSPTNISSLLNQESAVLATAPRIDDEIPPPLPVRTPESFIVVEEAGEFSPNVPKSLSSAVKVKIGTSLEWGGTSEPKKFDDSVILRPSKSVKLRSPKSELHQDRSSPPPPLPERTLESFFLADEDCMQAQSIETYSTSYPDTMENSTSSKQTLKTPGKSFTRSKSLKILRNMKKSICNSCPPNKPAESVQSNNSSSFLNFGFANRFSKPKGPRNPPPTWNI

[24] = target: T9, Tyrosine-protein phosphatase non-receptor type 7; assay: redox-active compounds inhibiting HePTP phosphatase – biochemical, fluorescence, mechanism study (AID 2068); format: functional
[25] = target: T11, Dual specificity protein phosphatase 6 (Rattus norvegicus, UniProt Q64346); format: functional;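 note: confirmatory in vitro dose-response testing of MKP-3 inhibition; recombinant His-tagged MKP-3 made in E. coli BL21 with OMFP substrate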
T11 sequence (Q64346 whole entry): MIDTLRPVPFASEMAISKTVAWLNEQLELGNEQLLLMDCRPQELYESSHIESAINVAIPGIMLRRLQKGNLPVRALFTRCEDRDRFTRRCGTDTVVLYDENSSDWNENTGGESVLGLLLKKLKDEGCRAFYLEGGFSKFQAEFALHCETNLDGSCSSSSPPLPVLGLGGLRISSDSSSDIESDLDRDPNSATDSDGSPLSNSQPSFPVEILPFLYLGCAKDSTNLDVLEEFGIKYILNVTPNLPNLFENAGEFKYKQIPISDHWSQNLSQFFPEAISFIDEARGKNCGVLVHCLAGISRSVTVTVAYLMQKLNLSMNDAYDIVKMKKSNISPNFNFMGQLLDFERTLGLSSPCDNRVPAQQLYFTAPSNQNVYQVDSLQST

[26] = target: T10, Tyrosine-protein phosphatase non-receptor type 22; assay: SAR LYP1 Fluorescent Assay using OMFP substrate for In Vitro dose response studies - Set 3. [Related pubchem assays (depositor defined):AID1779, AID1784, AID2140, AID2686]; format: functional
[27] = target: T8, Kappa-type opioid receptor; assay: SAR analysis of small molecule antagonists of the kappa opioid receptor via a luminescent beta-arrestin assay - Set 3. [Related pubchem assays (depositor defined):AID1777, AID1778, AID1785, AID1786, AID1966, AID2133, AID2136, AID2285, AID2495]; format: functional
[28] = target: T8, Kappa-type opioid receptor; assay: SAR analysis of Antagonists of the Kappa Opioid Receptor (KOR) using an Image-Based Assay - Set 3. [Related pubchem assays (depositor defined):AID1777, AID1785]; format: functional
[29] = target: Nucleotide-binding oligomerization domain-containing protein 1 (Homo sapiens, UniProt Q9Y239); assay: blockers of NOD1 pathway activity – revised, SAR follow-up (AID 2333); format: functional
Nucleotide-binding oligomerization domain-containing protein 1, sequence (Q9Y239 whole entry, the tested form may be a part): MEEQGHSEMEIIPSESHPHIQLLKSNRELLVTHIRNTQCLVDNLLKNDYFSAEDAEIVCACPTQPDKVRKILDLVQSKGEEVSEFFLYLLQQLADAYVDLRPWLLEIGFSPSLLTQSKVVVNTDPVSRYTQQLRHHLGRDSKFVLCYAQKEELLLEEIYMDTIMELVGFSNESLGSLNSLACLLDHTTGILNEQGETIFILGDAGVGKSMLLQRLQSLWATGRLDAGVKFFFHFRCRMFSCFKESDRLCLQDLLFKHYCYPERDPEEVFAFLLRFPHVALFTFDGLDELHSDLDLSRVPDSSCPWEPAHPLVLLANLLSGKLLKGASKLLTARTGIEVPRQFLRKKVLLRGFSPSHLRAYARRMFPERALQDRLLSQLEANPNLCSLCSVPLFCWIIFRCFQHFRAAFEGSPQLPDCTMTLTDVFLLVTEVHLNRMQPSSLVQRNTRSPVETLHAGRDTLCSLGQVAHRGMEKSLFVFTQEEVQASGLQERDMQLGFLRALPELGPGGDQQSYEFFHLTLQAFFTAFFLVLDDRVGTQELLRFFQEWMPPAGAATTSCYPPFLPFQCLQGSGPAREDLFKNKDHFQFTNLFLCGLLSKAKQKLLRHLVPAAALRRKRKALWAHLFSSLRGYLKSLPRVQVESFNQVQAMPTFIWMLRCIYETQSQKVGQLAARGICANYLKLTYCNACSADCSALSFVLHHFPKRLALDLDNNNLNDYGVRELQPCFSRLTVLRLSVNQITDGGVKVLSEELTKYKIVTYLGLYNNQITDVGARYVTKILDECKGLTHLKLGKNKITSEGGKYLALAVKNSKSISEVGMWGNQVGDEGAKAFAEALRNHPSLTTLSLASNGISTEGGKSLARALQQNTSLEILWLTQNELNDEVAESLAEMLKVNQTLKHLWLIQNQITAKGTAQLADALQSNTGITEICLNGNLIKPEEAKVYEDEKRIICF

HEK293 = assay: cells; conditions: Homo sapiens
Tumor necrosis factor = Tumor necrosis factor (Homo sapiens, UniProt P01375); assay: analog potency on TNFa NF-kB signaling – cell-based, revised, SAR follow-up (AID 2337); format: functional
Tumor necrosis factor, sequence (P01375 whole entry): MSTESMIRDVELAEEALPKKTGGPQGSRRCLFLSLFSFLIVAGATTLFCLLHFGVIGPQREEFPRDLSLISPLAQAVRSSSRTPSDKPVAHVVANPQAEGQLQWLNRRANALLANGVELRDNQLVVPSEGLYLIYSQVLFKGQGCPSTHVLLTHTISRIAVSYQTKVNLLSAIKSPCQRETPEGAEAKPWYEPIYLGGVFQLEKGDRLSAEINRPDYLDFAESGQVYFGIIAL

T1 sequence (P51452 whole entry): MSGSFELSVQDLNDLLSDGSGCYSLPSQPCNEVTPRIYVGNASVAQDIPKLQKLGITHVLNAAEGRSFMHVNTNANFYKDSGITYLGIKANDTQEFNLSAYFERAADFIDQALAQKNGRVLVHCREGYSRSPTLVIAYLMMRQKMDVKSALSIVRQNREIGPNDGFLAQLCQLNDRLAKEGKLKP

## COc1ccccc1CC(=N)NOC(=O)c1ccco1
[1]
  Ki: 48.4 µM (inactive)

## NC(=O)c1ccc(Cn2c(C(=O)c3cc(Cl)c(N)c(Cl)c3)c3ccccc3[n+]2[O-])cc1
Bcl-2-related protein A1
  IC50: > 20 µM (inactive)
[2]
  IC50: 10.8 µM (active)
[3]
  IC50: > 20 µM (inactive)

## CCCCC(=O)NNC=C1C(=O)N(CC)C(=S)N(CC)C1=O
Beta-galactosidase
  IC50: > 66.6 µM (inactive)

## CCOC(=O)c1ccc2c(c1)N(C)C(=O)c1ccccc1S2
[4]
  IC50: 8.67 µM (active)
[5]
  IC50: 16.6 µM (inactive)
[6]
  IC50: 1.55 µM (active)
[7]
  IC50: 22.2 µM (active)
[8]
  IC50: 12.9 µM (inactive)
[9]
  IC50: 11.7 µM (active)
[10]
  IC50: 8.14 µM (active)
[11]
  IC50: > 100 µM (inactive)
[12]
  IC50: > 100 µM (inactive)
[13]
  IC50: > 99 µM (inactive)

## COc1cc(/C=C2\C(=O)ON=C2c2ccccc2)cc(Cl)c1O
[14]
  EC50: > 32 µM (inactive)

## O=C(COc1ccccc1Cl)N[C@@H]1CCCN(Cc2ccccc2)C1
[15]
  EC50: 10 µM (active)

## CC(C)c1ccc(S(=O)(=O)NCc2ccc(C(=O)NCCN(Cc3ccccc3)C(C)C)cc2)cc1
Mu-type opioid receptor
  IC50: 0.66 µM (active)
[16]
  IC50: 0.531 µM (active)
[17]
  IC50: > 32 µM (inactive)
[18]
  IC50: 1.57 µM (active)

## Cc1cc(OCC(=O)O)ccc1[S+](C)[O-] (stereo unspecified)
[19]
  IC50: > 99 µM (inactive)
[20]
  IC50: > 100 µM (inactive)
[21]
  IC50: > 100 µM (inactive)
[22]
  IC50: > 100 µM (inactive)
[23]
  IC50: > 100 µM (inactive)
[24]
  IC50: > 100 µM (inactive)
[25]
  IC50: > 99 µM (inactive)
[26]
  IC50: > 100 µM (inactive)

## O=C(Cn1c(=O)c2cccn2c2cccnc21)NCCCN1CCN(Cc2ccccc2)CC1
Mu-type opioid receptor
  IC50: > 32 µM (inactive)
[17]
  IC50: > 32 µM (inactive)
[27]
  IC50: > 20 µM (inactive)
[28]
  IC50: 11 µM (inactive)

## O=C(Nc1ccc(Cl)c([N+](=O)[O-])c1)c1ccc2ccccc2c1O
[29]
  IC50: 0.692 µM (active)
HEK293
  IC50: 4.04 µM (active)
Tumor necrosis factor
  IC50: 0.87 µM (active)
